Assay results reported in patent publication US5830910A (priority 1995, dated 1998).

Assays:
[1] = tested on: cultured hippocampal neurons; assay: calcium ionophore A23187 neurotoxicity; type: cell-based, rat
Description: (§1) Dissociated embryonic rat hippocampal cell cultures were established and maintained. All procedures conformed with the NIH Guide for the Care and Use of Laboratory Animals and were approved by the University of Kentucky Animal Care and Use Committee. Cultures were maintained on a polyethyleneimine-coated substrate in plastic 35-mm dishes or 96 wall plates (for cell survival studies) or glass-bottom 35-mm dishes (for [Ca^2+ ]i imaging studies). The cell density was ^~ 70-100 cells/mm^2. Cells were maintained in Eagle's minimum essential medium supplemented 10% with fetal bovine serum and containing 20 mM sodium pyruvate. […] Aβ25-35 (Bachem, lot ZJ744) and Aβ1-40 (Bachem, lot ZK600) were stored in the lyophilized form, and stocks were prepared immediately before use by dissolving the peptide at a concentration of 1 mM in sterile distilled water. […] Glutamate and colchicine (Sigma) were prepared as 200-500x stocks in saline. Cytochalasins D and E (Sigma) and calcium ionophore 4-bromo-A23187 (Calbiochem) were prepared as 500x stocks in dimethyl sulfoxide. Vitamin E (α-tocopherol; Sigma) was prepared as a 500x stock in ethanol. Nordihydroguaiaretic acid and FeSo4 were prepared as 500x stocks in sterile water.
Neuronal survival was quantified by counting viable neurons in the same microscope fields (10x objective) immediately before experimental treatment and at time points after treatment. In addition, cells were grown in 96-well plates and Alamar blue fluorescence (Alamar Laboratories)was quantified by using a fluorescence plate reader. Alamar Blue is a non-fluorescent substrate that, after reduction by cell metabolites, becomes fluorescent. […] Viability of the remaining neurons was assessed by morphological criteria. […] Survival values were expressed as percentages of the initial number of neurons present before experimental treatment. […]
FIG. 7. Cultures were pretreated for 1 h with 0.2% dimethylsulfoxide (control) or 100 nM cytochalasin D. Calcium ionophore A23187 was then added at the indicated concentrations and neuronal survival was assessed 8 h later. […]

[2] = tested on: cultured hippocampal neurons; assay: hydrogen peroxide neurotoxicity; type: cell-based, rat
Description: as §1
Neuronal survival was quantified by counting viable neurons in the same microscope fields (10x objective) immediately before experimental treatment and at time points after treatment. In addition, cells were grown in 96-well plates and Alamar blue fluorescence (Alamar Laboratories)was quantified by using a fluorescence plate reader. Alamar Blue is a non-fluorescent substrate that, after reduction by cell metabolites, becomes fluorescent. […] Viability of the remaining neurons was assessed by morphological criteria. Neutrons with intact neurites of uniform diameter and a soma with a smooth, round appearance were considered viable, whereas neurons with fragmented neurites and a vacuolated or swollen soma were considered nonviable. Survival values were expressed as percentages of the initial number of neurons present before experimental treatment. Statistical comparisons were made using ANOVA and Scheffe post-hoc tests for pairwise comparisons.
FIG. 15. […] Cultures were pretreated for 1 h with vehicle (Control), 100 nM cytochalasin D (CyD), or 50 μg/ml vitamin E (vE) and then exposed for 20 h to the indicated concentrations of hydrogen peroxide. Data are mean and SEM values of determinations made in four separate cultures.

[3] = tested on: cultured hippocampal neurons; assay: iron (FeSO4) neurotoxicity; type: cell-based, rat; settings: 50 μg/ml vitamin E or 2 μM NDGA, 1 h preincubation
Description: as §1
(§2) Neuronal survival was quantified by counting viable neurons in the same microscope fields (10x objective) immediately before experimental treatment and at time points after treatment. In addition, cells were grown in 96-well plates and Alamar blue fluorescence (Alamar Laboratories)was quantified by using a fluorescence plate reader. Alamar Blue is a non-fluorescent substrate that, after reduction by cell metabolites, becomes fluorescent. Usually neurons that died in the time intervals (20-48 h) between examination points were absent. Viability of the remaining neurons was assessed by morphological criteria. Neutrons with intact neurites of uniform diameter and a soma with a smooth, round appearance were considered viable, whereas neurons with fragmented neurites and a vacuolated or swollen soma were considered nonviable. Survival values were expressed as percentages of the initial number of neurons present before experimental treatment. Statistical comparisons were made using ANOVA and Scheffe post-hoc tests for pairwise comparisons.
FIG. 8. Cultures were preincubated 1 h in the presence of 0.5% dimethylsulfoxide (control), 100 nM cytochalasin D, 50 μg/ml vitamin E (VitE), or 2 μM nordihydroguairetic acid (NDGA). Cultures were then exposed for 6 h to the indicated concentrations of FeSO4 and neuronal survival was quantified. Values represent the means and SEM of determinations made in four separate cultures. *P<0.001 compared to value for cultures exposed to 100 μM FeSO4 alone.

[4] = tested on: cultured hippocampal neurons; type: cell-based, rat; settings: for neurotoxicity, preliminary characterization: 48-h period, added in soluble form
Description: as §1, §2
FIG. 12. (A) Cultures were pretreated for 1 h with vehicle 0.2% dimethyl sulfoxide (Control) or 100 nM cytochalasin D (CyD) and were exposed to the indicated concentrations of Aβ25-35 for 48 h. Data are mean and SEM values of determinations made in four separate cultures.
(B) Cultures were pretreated for 1 h with the indicated concentrations of cytochalasin D and then exposed to 50 μM Aβ25-35; parallel cultures were exposed to cytochalasin D alone (Control) . Data are mean and SEM values of determinations made in four separate cultures.
FIG. 14. Cultures were exposed to 100 nM colchicine; 50 μM Aβ; 100 nM colchicine plus 50 μM Aβ; 100 nM cytochalasin E (CyE) plus Aβ (colchicine and cytochalasin E were added 1 h before Aβ); neuronal survival was assessed 48 h later. Data are mean and SEM values of determinations made in four separate cultures. *p<0.01, compared with values for control or colchicine alone. **p<0.01, compared with value for cultures exposed to Aβ alone.

[5] = aggregation of peptides in culture medium; type: physicochemical
Description: as §1

[6] = tested on: cultured hippocampal neurons; assay: neurotoxicity of combined exposure to Aβ and glutamate; type: cell-based, rat; settings: 50 μM Aβ plus 20 μM glutamate, 48 h; compared with either insult alone
Description: Dissociated embryonic rat hippocampal cell cultures were established and maintained. All procedures conformed with the NIH Guide for the Care and Use of Laboratory Animals and were approved by the University of Kentucky Animal Care and Use Committee. Cultures were maintained on a polyethyleneimine-coated substrate in plastic 35-mm dishes or 96 wall plates (for cell survival studies) or glass-bottom 35-mm dishes (for [Ca^2+ ]i imaging studies). The cell density was ^~ 70-100 cells/mm^2. Cells were maintained in Eagle's minimum essential medium supplemented 10% with fetal bovine serum and containing 20 mM sodium pyruvate. […]
Neuronal survival was quantified by counting viable neurons in the same microscope fields (10x objective) immediately before experimental treatment and at time points after treatment. In addition, cells were grown in 96-well plates and Alamar blue fluorescence (Alamar Laboratories)was quantified by using a fluorescence plate reader. […] Viability of the remaining neurons was assessed by morphological criteria. […] Survival values were expressed as percentages of the initial number of neurons present before experimental treatment. […]
FIG. 13. […] Neuronal survival was assessed 48 h after treatment. […]

[7] = tested on: neuronal [Ca^2+]i in cultured hippocampal neurons; assay: measurement of [Ca^2+]i, fura-2 imaging; type: cell-based, rat; settings: 50 μM Aβ
Description: as §1
Fluorescence ratio imaging of the Ca^2+ indicator dye fura-2 was used to quantify [Ca^2+ ]i in neuronal somata. Cells were incubated for 30-40 min in the presence of 2 μM acetoxymethyl ester form of the [Ca^2+ ]i indicator dye fura-2 and were then washed twice (2 ml/wash) with fresh medium and allowed to incubate at least 40 min before imaging. Immediately before imaging, the normal culture medium was replaced with Hanks' balanced saline solution (GIBCO) containing 10 mM HEPES buffer and 10 mM of glucose. Cells were imaged using a Zeiss Attofluor system with a oil objective or Quantex system with a 40x oil objective. The ratio of the fluorescence emission using two different excitation wavelengths (334 and 380 nm) was used to determine [Ca^2+ ]i. The system was calibrated using solutions containing either no Ca^2+ or a saturating level of Ca^2+ (1 mM) according to the following formula: [Ca^2+ ]i =KD [(R-Rmin) / (Rmax -R)] (F0 /FS). Values represent the average [Ca^2+ ]i in the neuronal cell body. Experimental treatments were added to the bathing medium by dilution from 100-500x stocks.
(A) Cultures were pretreated for 1 hr with 100 nM cytochalasin D and then [Ca^2+ ]i in neurons was monitored prior to and following exposure to 50 μM glutamate. The records represent the mean [Ca^2+ ]i in 8-12 neurons. Similar results were obtained in 4 separate experiments.
(B) Aβ-induced potentiation of [Ca^2+ ]i response to glutamate is abrogated by cytochalasin D. Cultures were left untreated (Control) or were exposed to 20 μM Aβ25-35 for 6 hr or cytochalasin D plus Aβ25-35 for 6 hr. The [Ca^2+ ]i was then monitored prior to following exposure to 50 μM glutamate. Values represent the means of 8-14 neurons. Similar results were obtained in 3 separate experiments.
(C) Cultures were pretreated for 3 hr with 50 μM Aβ alone or in combination with 100 nM cytochalasin D. The [Ca^2+ ]i in neurons was then monitored prior to and following exposure to 50 mM KCl. Values represent the mean of 14-23 neurons. Similar results were obtained in a separate experiment.
(D) Cultures were pretreated for 1 h with 100 nM cytochalasin D. The [Ca^2+ ]i in neurons was measured immediately prior to, and at 5 min following, exposure to the indicated concentrations of glutamate. Values represent the means and SEM of determinations made in 17-26 neurons. *P<0.05 (10 μM glutamate), P<0.02 (50 μM glutamate), P<0.01 (100 μAM glutamate) compared to corresponding control values.
FIG. 9. Cultures were pretreated for 3 h with vehicle (control) or 10 μM jasplakinolide. The [Ca^2+ ]i was monitored prior to and following exposure to 50 μM glutamate. Values represent the mean of determinations made in 10-12 neurons. Similar results were obtained in two additional experiments.
FIG. 10. […]

[8] = tested on: neuronal [Ca^2+]i in cultured hippocampal neurons; assay: measurement of [Ca^2+]i, fura-2 imaging; type: cell-based, rat; settings: 50 μM glutamate
[9] = tested on: cultured hippocampal neurons; assay: cells; type: cell-based, rat
Description: as §1, §2
Values represent the means and SEM of 4 separate cultures (cell counts) or 4 culture wells (Alamar blue assay). ^a p<0.05 compared to control value. ^b p<0.001 compound to control value. ^c p<0.01 compared to value for glutamate-treated cultures. ^d p<0.005 compared to value for glutamate-treated cultures. ^e p<0.001 compared to value for Aβ-treated cultures. ^f p<0.001 compared to value for cultures treated with 20 μM glutamate. ^g p<0.001 compared to cultures treated with 50 μM Aβ+20 μM glutamate. n.d. not determined.

## CNc1ccc2oc(C[C@H]3O[C@@]4(CC[C@H]3C)O[C@H]([C@H](C)C(=O)c3ccc[nH]3)[C@H](C)C[C@H]4C)nc2c1C(=O)O [A23187]
[1]; 1 μM
  neurons killed: essentially all neurons being killed
[1]; 100-1000 nM
  neuronal survival: concentration-dependent reduction in neuronal survival

## OO [Hydrogen peroxide, hydrogen peroxide, reference compound]
[2]; 20-h exposure
  neuronal survival: concentration-dependent reduction in neuronal survival

## Cc1c(C)c2c(c(C)c1O)CCC(C)(CCCC(C)CCCC(C)CCCC(C)C)O2 (stereo not drawn) [Vitamin E, α-tocopherol, reference compound]
[2]; 50 μg/ml, 1 h pretreatment, 20 h
  effect on neurotoxicity of hydrogen peroxide: largely prevented
[3]
  effect on neurotoxicity of iron: completely blocked

## Aβ1-40: Aβ1-40 (Bachem, lot ZK600), amyloid β-peptide [reference compound]
[4]
  neurotoxicity, preliminary characterization: progressively killed neurons
[5]
  aggregation in culture medium: aggregated rapidly

## Aβ25-35: Aβ25-35 (Bachem, lot ZJ744), amyloid β-peptide fragment (GSNKGAIIGLM; Amyloid-beta protein 42; UniProt P05067 696-706, looked up, fragment) [reference compound]
[4]; 50 μM, 24 hr
  neuronal survival in cultures exposed to Aβ25-35: less than 50 % of control values
[4]; 24-h incubation
  neuronal survival upon exposure to Aβ25-35: concentration-dependent reduction in neuronal survival
[4]
  neurotoxicity, preliminary characterization: progressively killed neurons
[6]
  neuronal death on combined exposure to Aβ and glutamate: significantly more neuronal death
[7]; 3 h
  rest [Ca^2+]i: ~ 280 nM
[7]; 6 h
  rest [Ca^2+]i: ~ 440 nM
[8]; Aβ pretreatment 3 h
  [Ca^2+]i reached after glutamate in Aβ-pretreated cultures: > 1,500 nM
[8]; Aβ pretreatment 3 hr
  [Ca^2+]i reached after glutamate in Aβ-pretreated cultures: over 1 μM
[5]
  aggregation in culture medium: aggregated rapidly
[9]; 50 μM Aβ + 20 μM Glutamate
  Neuron Survival (% of control), Alamar Blue Assay: 24 ± 0.8 % of control
[9]; 50 μM, alone
  Neuron Survival (% of control), Alamar Blue Assay: 47 ± 3.5 % of control
